Assay results as given in US20210186972A1, “FORMULATIONS AND METHODS FOR THE PREVENTION AND TREATMENT OF TUMOR METASTASIS AND TUMORIGENESIS” (THE UNITED STATES OF AMERICA, AS REPRESENTED BY THE …, priority 2018, published 2021).

Legend:
[1] = tested on: PANC1 cells; experiment: 24-well Transwell MATRIGEL invasion assay, PANC1; format: cell-based, human; details: 0.6 μM, within 24 hours
Procedure: FIG. 3 is a bar graph showing that metarrestin inhibits MATRIGEL gelatinous protein mixture (BD Biosciences, Franklin Lakes, N.J.) invasion at below micromolar concentrations (0.6 μM) within 24 hours of treatment (* p<0.05 and ** p<0.01 in comparison to DMSO [control]). The invasion (%) is on the y-axis and the metarrestin [microM] is on the x-axis. The cell line PC3M is shown in white bars and the cell line PANC1 (human pancreas) is shown in black bars.
24-well Transwell Permeable MATRIGEL gelatinous protein mixture Invasion assay: The effect of metarrestin on invasion activity of PANC1 and PC3M cells was measured using 24-well Transwell Permeable MATRIGEL gelatinous protein mixture Invasion Chambers with 8 μm pores (Corning, Cat #354480). Membranes were rehydrated with 500 μL of serum-free DMEM (Thermo Fisher, Cat #11965084) both inside the chamber and inside the well and incubated for two hours at 37° C., 5% CO2. Cells were detached, washed, resuspended in serum-free DMEM, counted, and diluted to a final concentration of 1×10^5 cells/mL in six separate 15 mL conical tubes. […] 750 μL of DMEM plus 10% FBS acting as a chemoattractant were placed in the basal wells. Plates were incubated at 37° C., 5% CO2 for 24 hours. […]

[2] = tested on: HeLa, PANC1 and PC3M cells; PANC1 xenograft tumor tissues; experiment: Nucleolar structure by electron microscopy and immunofluorescence in cancer cells and tumor tissues; format: cell-based, human
Procedure: Representative electron micrographs are shown for HeLa cells (FIG. 21A; treated at 1 μM for 24 hours), primary pancreatic tumors (FIG. 21B), and liver metastases (FIG. 21C) from NSG PANC1 mice treated with vehicle (top) or 10 mg/kg metarrestin (bottom) for 7 days. […] Scale bar=1 μm.
100 nucleoli were randomly selected and analyzed to calculate nucleolar area as ((largest+shortest diameter)/2)^2×π). The comparison of mean nucleolar areas was performed using Mann Whitney U test, 2-tailed, n=4 animals per group.
To address the mechanisms by which metarrestin inhibits metastasis, cellular changes after metarrestin treatment were observed. Primary antibodies: 1:300 dilution for SH54 (anti-PTB antibody); 1:300 for Nopp140 (anti-human Nopp140 rabbit polyclonal serum RS8); 1:50 for UBF (F-9) (Santa Cruz Biotechnology); 1:100 for RPA194 (Santa Cruz Biotechnology); 1:100 for CUG-BP1 (3B1) (Santa Cruz Biotechnology); 1:10 for fibrillarin (Sigma Cat #: ANA-N); 1:1000 for SC35; 1:300 for paxillin (ab32084); 1:600 for vinculin (Sigma V9131). The fluorescein-conjugated secondary antibodies (Jackson ImmunoResearch) and ALEXA FLUOR antibodies (Thermofisher Scientific) were used at a dilution of 1:200. Samples were visualized on a Nikon ECLIPSE Ti-E inverted fluorescence microscope using NIS-Elements AR 3.2 software (Nikon).
The nucleolar disruption was reversible within 48 hours upon withdrawal of metarrestin (FIG. 47). Similar disruptions were observed among other treated cell lines, including PANC1 and PC3M cells (FIG. 48), primary tumor, and liver metastatic tissues in the PANC1 xenograft model (FIG. 21, right panels). […] The segregation of the nucleolar compartments observed by EM is believed to correspond to the nucleolar capping structures detected by immunofluorescence of nucleolar proteins (FIGS. 21A-21C, 23, and 50). […]

[3] = Repeat dose plasma pharmacokinetics, IP; format: in vivo, SCID Beige mice; details: for concentration at 24 h: SCID Beige, mouse, plasma, intraperitoneal
Procedure: Metarrestin was administered to female BALB/c mice, n=3 in the single dose and the repeat doses were administered to SCID-beige mice, n=3 per time point. The repeat dose study mice were given daily intraperitoneal injections for 4 weeks, with concentration measured 24 h after the last dose. Metarrestin was formulated in 5% NMP+20% PEG400+75% (10% […] in water).
BALB/c mice, 17-19 g, female, n=66, were purchased and had free access to food and water. They were dosed with metarrestin at 5 or 25 mg/kg (10 ml/kg) in 5% NMP [NMP (Sigma-Aldrich cat #270458), 20% PEG400 (Sigma-Aldrich cat #202398), and 75% 10% HPBCD (Sigma-Aldrich cat #H107)] via lower left abdominal quadrant injection (n=33 each dose). The animals were anesthetized with isoflurane and restrained manually at the designated time points. Approximately 120 μL of blood were taken from the animals into K2EDTA tubes via retro-orbital puncture. Blood samples were placed on ice and centrifuged (2,000 g, 5 min under 4° C.) to obtain plasma samples within 15 minutes. An aliquot of 20 μL plasma sample was protein-precipitated with 200 μL acetonitrile that contained 50 ng/mL IS (dexamethasone). The mixture was vortexed for 2 min, centrifuged at 14,000 rpm for 5 min, and an aliquot of 30 μL supernatant was diluted with 70 μL MeOH:H2O (1:1, v/v), then vortexed for 2 min. A 2 μL aliquot of supernatant was injected into UPLC-MS/MS. Analysis of samples was done with an LC-MS/MS-02 (API4000), Waters-BEH-C18 (2.1×50 mm, 1.7 μm) column, flow rate 0.6 mL/min, with a mobile phase consisting of solvent A (H2O— 0.025% FA-1 mM NH4OAc) and solvent B (MeOH— 0.025% FA-1 mM NH4OAc). The gradient was 10, 90, 90, 10% B at 0.30, 0.60, 1.20, 1.21, 1.80 (stop) min. Retention times for metarrestin and dexamethasone were 1.09 and 1.08 min, respectively. Calibration curves were established with known serially diluted concentrations of metarrestin before analysis. SCID Beige mice were purchased and dosed with metarrestin at 5 and 25 mg/kg, once daily at 24 hour intervals for 4 weeks as above. Twenty-four hours after the final dose, the concentrations of metarrestin in plasma were analyzed.

[4] = 25 mg/kg IP once daily for 4 weeks, 24 h after the final dose

N=c1c2c(-c3ccccc3)c(-c3ccccc3)n(Cc3ccccc3)c2ncn1[C@H]1CC[C@H](O)CC1 [metarrestin]
Invasion of PANC1 cells [1]: effectively blocked the invasion
Nucleolar structure ([2]; 1 μM, electron microscopy): induced collapse of the nucleolus
Time to reversal of nucleolar disruption upon withdrawal ([2]; after 1 μM for 24 hours, HeLa cells): ≤ 48 h
Nucleolar volume ([2]; treated cell lines and cancer tissues, p<0.0001): significantly reduced
Plasma concentration [3, 4]: 1460 nM
concentration at 24 h ([3]; 5 mg/kg IP once daily for 4 weeks, 24 h after the final dose): 48.4 ng/mL
concentration at 24 h [3, 4]: 692 ng/mL
Risk of accumulation ([3]; single and multiple daily IP dosing, 5 and 25 mg/kg): predicted moderate risk of accumulation
